Reference: patent US20080200473A1, “Imidazo [1,2-a]Pyridine Compounds, Compositions, Uses and Methods Thereto” (Ferrer Internacional, S.A., priority 2004, published 2008)

Assays:
α1-GABAA receptor = assay: Ligand-binding assay, competitive with radiolabeled flumazenil, cerebellum membranes; settings: Affinity for α1-GABAA receptor, rat cerebellum membranes, radiolabeled flumazenil 1 nM; for % Inhibition 10^−5M: 10^-5M test compound; for % Inhibition 10^−7M: 10^-7M test compound
Experimental: (§1) Ligand-binding assays. Determination of the affinity of test compounds for α1- and α2-GABAA receptor.
(§2) Male Sprague-Dawley rats weighing 200-250 g at the time of experiment were used. After decapitation of the animal, the cerebellum (tissue that mostly contains α1-GABAA receptor) and spinal cord (tissue that mostly contains α2-GABAA receptor) were removed. The membranes were prepared according to the method by J. Lameh et al. (Prog. Neuro-Psychopharmacol. Biol. Psychiatry, 24, 979-991, 2000) and H. Noguchi et al. (Eur. J. Pharm., 434, 21-28, 2002). Once the tissues weighed, they were suspended in 50 mM Tris.HCl (pH 7.4), 1:40 (w/v), or sucrose 0.32 M in the case of spinal cord, homogenized and then centrifuged at 20,000 g for 10 min at 7° C. twice. The resulting pellet was resuspended under the same conditions and centrifuged again. The pellet was finally resuspended on a minimum volume and kept at −80° C. overnight. On the next day, the process was repeated until the final pellet was resuspended at a ratio of 1:10 (w/v) in the case of cerebellum and at a ratio of 1:5 (w/v) in the case of spinal cord.
(§3) Affinity was determined by competitive tests using radiolabeled flumazenil as ligand. The tests were performed according to the methods described by S. Arbilla et al. (Eur. J. Pharmacol., 130, 257-263, 1986); and Y. Wu et al. (Eur. J. Pharmacol., 278, 125-132, 1995) using 96-well microtiter plates. The membranes containing the study receptors, flumazenil (radiolabeling at a final concentration of 1 nM) and ascending concentrations of test compounds (in a total volume of 230 μL in 50 mM [ph 7.4] Tris.HCl buffer) were incubated. Simultaneously, the membranes were only incubated with the radiolabeled flumazenil (total binding, 100%) and in the presence of an elevated concentration of unradiolabeled flumazenil (non-specific binding, % estimation of radiolabeled ligand). The reactions started on adding the radiolabeled ligand followed by incubation for 60 minutes at 4° C. At the end of the incubation period, 200 μL of reaction were transferred to a multiscreen plate (Millipore) and filtered using a vacuum manifold and then washed three times with cold test buffer. The multiscreen plates were equipped with a GF/B filter that retained the membranes containing the receptors and the radiolabeled ligand which has been bound to the receptors. After washing, the plates were left till dry. Once dried, scintillation liquid was added and left under stirring overnight. The next day the plates were counted using a Perkin-Elmer Microbeta scintillation counter.
(§4) For analysis of the results the percentage of specific binding for every concentration of test compound was calculated as follows:
(§5) % specific binding=(X−N/T−N)×100
(§6) where, X: amount of bound ligand for every concentration of compound. T: total binding, maximum amount bound to the radiolabeled ligand. N: non-specific binding, amount of radiolabeled ligand bound in a non-specific way irrespective of the receptor used.
(§7) Every concentrations of compound were tested in triplicate and their mean values were used to determine the experimental values of % specific binding versus the concentration of compound. Affinity data are expressed as % inhibition at 10^-5M and 10^-7M concentrations.

mice = assay: In vivo predictive sedation-hypnosis test (inhibition of traveled distance); set-up: species or system mouse; settings: male CD1 mice; single equimolecular intraperitoneal doses; traveled distance over 30 min after dosing (first 5 min discarded) versus control
Experimental: In vivo determination of predictive sedative-hypnotic action.
The in vivo effects of these compounds were assessed by a predictive sedation-hypnosis test in mice (D. J. Sanger et al., Eur. J. Pharmacol., 313, 35-42, 1996; and G. Griebel et al., Psychopharmacology, 146, 205-213, 1999).
Groups of 5-8 male CD1 mice, weighing 22-26 g at the time of test, were used. The test compounds were administered in single equimolecular intraperitoneal doses, suspended in 0.25% agar with one drop of Tween in a volume of 10 mL/kg. Control animals received the vehicle alone. Using a Smart System (Panlab, S. L., Spain) the traveled distance in cm is recorded for each mouse at 5-min intervals during a period of 30 minutes after dosing. The inhibition percentage of traveled distance of treated animals versus control animals (the first 5 min were discarded) was calculated.

α2-GABAA receptor = assay: Ligand-binding assay, competitive with radiolabeled flumazenil, spinal cord membranes; settings: Affinity for α2-GABAA receptor, rat spinal cord membranes, radiolabeled flumazenil 1 nM; for % Inhibition 10^−5M: 10^-5M test compound; for % Inhibition 10^−7M: 10^-7M test compound
Experimental: as §1, §2, §3, §4, §5, §6, §7

Structure (SMILES)	% Inhibition 10^−5M (α1-GABAA receptor) [%]	% Inhibition 10^−7M (α1-GABAA receptor) [%]	% Inhibition Motor Activity (mice) [%]	% Inhibition 10^−5M (α2-GABAA receptor) [%]	% Inhibition 10^−7M (α2-GABAA receptor) [%]
Cc1ccc(-c2nc3ccc(C)cn3c2CNC(=O)c2ncc(F)cc2F)cc1 [Example 20, 3,5-Difluoro-pyridine-2-carboxylic acid (6-methyl-2-p-tolyl-imidazo[1,2-a]pyridin-3-ylmethyl)-amide]	99.8	65.9	91.99	95.2	0.0
C#CCN(Cc1c(-c2ccc(C)cc2)nc2ccc(C)cn12)C(=O)C1CC1 [Example 42, Cyclopropanecarboxylic acid (6-methyl-2-p-tolyl-imidazo[1,2-a]pyridin-3-ylmethyl)-prop-2-ynyl-amide]	92.7	12.4	40.35	49.7	0.0
Cc1ccc(-c2nc3ccc(C)cn3c2CN(C)C(=O)c2ccccn2)cc1 [Example 28, Pyridine-2-carboxylic acid methyl-(6-methyl-2-p-tolyl-imidazo[1,2-a]pyridin-3-ylmethyl)-amide]	99.8	73.3	55.64	93.9	14.3
Cc1ccc(-c2nc3ccc(C)cn3c2CNC(=O)c2ccc(N(C)C)cc2)cc1 [Example 3, 4-Dimethylamino-N-(6-methyl-2-p-tolyl-imidazo[1,2-a]pyridin-3-ylmethyl)-benzamide]	73.9	21.4	45.59	17.4	0.0
Cc1ccc(-c2nc3ccc(C)cn3c2CNC(=O)c2ccccn2)cc1 [Example 5, Pyridine-2-carboxylic acid (6-methyl-2-p-tolyl-imidazo[1,2-a]pyridin-3-ylmethyl)-amide]	99.8	75.5	90.40	95.3	28.4
Cc1ccc(C(=O)N(C)Cc2c(-c3ccc(C)cc3)nc3ccc(C)cn23)cc1 [Example 30, 4,N-Dimethyl-N-(6-methyl-2-p-tolyl-imidazo[1,2-a]pyridin-3-ylmethyl)-benzamide]	90.5	4.6	44.36	33.9	0.0
Cc1ccc(-c2nc3ccc(C)cn3c2CNC(=O)c2cc(F)c(Cl)cc2Cl)cc1 [Example 87, 2,4-Dichloro-5-fluoro-N-(6-methyl-2-p-tolyl-imidazo[1,2-a]pyridin-3-ylmethyl)-benzamide]	–	–	48.13	–	–
Cc1ccc(-c2nc3ccc(C)cn3c2CNC(=O)c2cccnc2)cc1 [Example 63, N-(6-Methyl-2-p-tolyl-imidazo[1,2-a]pyridin-3-ylmethyl)-nicotinamide]	98.5	36.1	74.86	89.8	13.4
COc1ccc2nc(C(=O)NCc3c(-c4ccc(C)cc4)nc4ccc(C)cn34)sc2c1 [Example 21, 6-Methoxy-benzothiazole-2-carboxylic acid (6-methyl-2-p-tolyl-imidazo[1,2-a]pyridin-3-ylmethyl)-amide]	67.9	3.5	57.14	25.6	0.0
Cc1ccc(-c2nc3ccc(C)cn3c2CNC(=O)c2ccncc2)cc1 [Example 7, N-(6-Methyl-2-p-tolyl-imidazo[1,2-a]pyridin-3-ylmethyl)-isonicotinamide]	98.0	36.5	72.45	81.3	0.0
Cc1ccc(-c2nc3ccc(C)cn3c2CNC(=O)C2CCC2)cc1 [Example 58, Cyclobutanecarboxylic acid (6-methyl-2-p-tolyl-imidazo[1,2-a]pyridin-3-ylmethyl)-amide]	98.8	6.5	94.25	78.6	9.2
Cc1ccc(-c2nc3ccc(C)cn3c2CN(C)C(=O)c2cnoc2C)cc1 [Example 99, 5-Methyl-isoxazole-4-carboxylic acid methyl-(6-methyl-2-p-tolyl-imidazo[1,2-a]pyridin-3-ylmethyl)-amide]	99.2	52.5	13.33	–	–
Cc1ccc(-c2nc3ccc(C)cn3c2CNC(=O)c2csc([N+](=O)[O-])c2)cc1 [Example 88, 5-Nitro-thiophene-3-carboxylic acid (6-methyl-2-p-tolyl-imidazo[1,2-a]pyridin-3-ylmethyl)-amide]	96.2	0.0	51.87	–	–
Cc1ccc(-c2nc3ccc(C)cn3c2CN(C)C(=O)c2cnccn2)cc1 [Example 96, Pyrazine-2-carboxylic acid methyl-(6-methyl-2-p-tolyl-imidazo[1,2-a]pyridin-3-ylmethyl)-amide]	99.9	80.5	44.04	–	–
Cc1ccc(-c2nc3ccc(C)cn3c2CNC(=O)c2ccsc2)cc1 [Example 82, Thiophene-3-carboxylic acid (6-methyl-2-p-tolyl-imidazo[1,2-a]pyridin-3-ylmethyl)-amide]	98.7	33.0	61.93	–	–
Cc1ccc(-c2nc3ccc(C)cn3c2CNC(=O)c2cc(C)n(C3CC3)c2C)cc1 [Example 84, 1-Cyclopropyl-2,5-dimethyl-1H-pyrrole-3-carboxylic acid (6-methyl-2-p-tolyl-imidazo[1,2-a]pyridin-3-ylmethyl)-amide]	–	–	36.32	–	–
Cc1ccc(-c2nc3ccc(C)cn3c2CNC(=O)/C=C/c2ccco2)cc1 [Example 80, 3-Furan-2-yl-N-(6-methyl-2-p-tolyl-imidazo[1,2-a]pyridin-3-ylmethyl)-acrylamide]	88.9	0.0	61.89	–	–
